Source: patent publication US6613718B2, “Aryl ether derivatives and processes for their preparation and herbicidal and desiccant compositions containing them” (Ishihara Sangyo Kaisha, Ltd., priority 2001, dated 2003)

Experiments:
Assay type in all cases: in vivo
[1] = test system: common ragweed (Ambrosia artemisiifolia L., AMBEL); test: Pre-emerge greenhouse herbicide activity screening, phytotoxicity rating; conditions: 14 days after application
How it was run: (§1)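 Pre-emerge: seeds sown 1 day before spray; acetone solutions, 15–1000 g ai/ha, track sprayer; soil watered after application, then bottom-watered. Post-emerge: plants at 2-3 leaf stage (sown 8-21 days prior), 0.25% v/v non-ionic surfactant added, bottom-watered only. Rated 0-100 at 14 DAA.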

[2] = test system: redroot pigweed (Amaranthus retroflexus, AMARE); test: as above; conditions: 14 days after application
How it was run: as §1

[3] = test system: large crabgrass (Digitaria sanguinalis, DIGSA); test: as above; conditions: 14 days after application
How it was run: as §1

[4] = test system: green foxtail (Setaria viridis, SETVI); test: as above; conditions: 14 days after application
How it was run: as §1

[5] = test system: lambsquarters (Chenopodium album, CHEAL); test: as above; conditions: 14 days after application
How it was run: as §1

[6] = test system: sicklepod (Cassia obtusifolia, CASOB); test: as above; conditions: 14 days after application
How it was run: as §1

[7] = test system: ivyleaf morningglory (Ipomoea hederacea, IPOHE); test: as above; conditions: 14 days after application
How it was run: as §1

[8] = test system: barnyardgrass (Echinochloa crus-galli, ECHCG); test: as above; conditions: 14 days after application
How it was run: as §1

[9] = test system: johnsongrass (Sorghum halepense, SORHA); test: as above; conditions: 14 days after application
How it was run: as §1

[10] = test system: velvetleaf (Abutilon theophrasti, ABUTH); test: as above; conditions: 14 days after application
How it was run: as §1

[11] = test system: upland rice (Oryza sp., var.Tebonnet, RICE); test: Pre-emerge greenhouse screening, crop safety (phytotoxicity rating); conditions: 14 days after application
How it was run: as §1

[12] = test system: soybean (Glycine max L., var. Pella 86, SOY); test: as above; conditions: 14 days after application
How it was run: as §1

[13] = test system: field corn (Zea mays L., var. Dekalb 535, CORN); test: as above; conditions: 14 days after application
How it was run: as §1

[14] = test system: field corn (Zea mays L., var. Dekalb 535, CORN); test: Post-emerge greenhouse screening, crop safety / corn selectivity (phytotoxicity rating); conditions: for CORN crop damage, phytotoxicity rating (0-100 scale): 14 days after application
How it was run: as §1

[15] = test system: common ragweed (Ambrosia artemisiifolia L., AMBEL); test: Post-emerge greenhouse herbicide activity screening, phytotoxicity rating
How it was run: as §1

[16] = test system: redroot pigweed (Amaranthus retroflexus, AMARE); test: as above
How it was run: as §1

[17] = test system: large crabgrass (Digitaria sanguinalis, DIGSA); test: as above; conditions: 14 days after application
How it was run: as §1

[18] = test system: green foxtail (Setaria viridis, SETVI); test: as above
How it was run: as §1

[19] = test system: lambsquarters (Chenopodium album, CHEAL); test: as above
How it was run: as §1

[20] = test system: sicklepod (Cassia obtusifolia, CASOB); test: as above
How it was run: as §1

[21] = test system: ivyleaf morningglory (Ipomoea hederacea, IPOHE); test: as above; conditions: 14 days after application
How it was run: as §1

[22] = test system: barnyardgrass (Echinochloa crus-galli, ECHCG); test: as above; conditions: 14 days after application
How it was run: as §1

[23] = test system: johnsongrass (Sorghum halepense, SORHA); test: as above; conditions: 14 days after application
How it was run: as §1

[24] = test system: velvetleaf (Abutilon theophrasti, ABUTH); test: as above; conditions: 14 days after application
How it was run: as §1

[25] = test system: upland rice (Oryza sp., var.Tebonnet, RICE); test: Post-emerge greenhouse screening, crop safety (phytotoxicity rating); conditions: 14 days after application
How it was run: as §1

[26] = test system: soybean (Glycine max L., var. Pella 86, SOY); test: as above; conditions: 14 days after application
How it was run: as §1

[27] = 125 g ai/ha, 14 days after application
[28] = 250 g ai/ha, 14 days after application

For `Fc1cc(Cl)c(Oc2ncccn2)cc1-c1nn2c(c1Br)CCCC2` [Compound 6-2], the “AMBEL phytotoxicity rating (0-100 scale)” value ([1]; 125 g ai/ha) was 99, the “AMBEL phytotoxicity rating (0-100 scale)” value ([1]; 250 g ai/ha) was 100 and the “AMARE phytotoxicity rating (0-100 scale)” value ([2]; 125 g ai/ha) was 100. The “AMARE phytotoxicity rating (0-100 scale)” value ([2]; 250 g ai/ha) was 100, the “DIGSA phytotoxicity rating (0-100 scale)” value ([3]; 125 g ai/ha) was 100 and the “DIGSA phytotoxicity rating (0-100 scale)” value ([3]; 250 g ai/ha) was 100. For the same molecule, the “SETVI phytotoxicity rating (0-100 scale)” value ([4]; 125 g ai/ha) was 100, the “SETVI phytotoxicity rating (0-100 scale)” value ([4]; 250 g ai/ha) was 100 and the “CHEAL phytotoxicity rating (0-100 scale)” value ([5]; 125 g ai/ha) was 100. For the same molecule, the “CHEAL phytotoxicity rating (0-100 scale)” value ([5]; 250 g ai/ha) was 100, the “CASOB phytotoxicity rating (0-100 scale)” value ([6]; 125 g ai/ha) was 100 and the “CASOB phytotoxicity rating (0-100 scale)” value ([6]; 250 g ai/ha) was 100. For the same molecule, the “IPOHE phytotoxicity rating (0-100 scale)” value ([7]; 125 g ai/ha) was 85, the “IPOHE phytotoxicity rating (0-100 scale)” value ([7]; 250 g ai/ha) was 100 and the “ECHCG phytotoxicity rating (0-100 scale)” value ([8]; 125 g ai/ha) was 99. The “ECHCG phytotoxicity rating (0-100 scale)” value ([8]; 250 g ai/ha) was 100, the “SORHA phytotoxicity rating (0-100 scale)” value ([9]; 125 g ai/ha) was 100 and the “SORHA phytotoxicity rating (0-100 scale)” value ([9]; 250 g ai/ha) was 100. The “ABUTH phytotoxicity rating (0-100 scale)” value ([10]; 125 g ai/ha) was 100, the “ABUTH phytotoxicity rating (0-100 scale)” value ([10]; 250 g ai/ha) was 100 and the “RICE crop damage, phytotoxicity rating (0-100 scale)” value (shortened to “RICE crop damage”) ([11]; 125 g ai/ha) was 60. For the same molecule, the “RICE crop damage” value ([11]; 250 g ai/ha) was 75, the “SOY crop damage, phytotoxicity rating (0-100 scale)” value (“SOY crop damage” for short) ([12]; 125 g ai/ha) was 25 and the “SOY crop damage” value ([12]; 250 g ai/ha) was 40. For the same molecule, the “CORN crop damage, phytotoxicity rating (0-100 scale)” value (shortened to “CORN crop damage”) ([13]; 125 g ai/ha) was 20, the “CORN crop damage” value ([13]; 250 g ai/ha) was 40 and the “CORN selectivity, phytotoxicity rating (0-100 scale)” value ([14]; 31.3 g ai/ha) was 3. For the same molecule, the “CORN selectivity, phytotoxicity rating (0-100 scale)” value ([14]; 62.5 g ai/ha) was 10, the “CORN crop damage” value ([14]; 125 g ai/ha) was 15 and the “CORN crop damage” value ([14]; 250 g ai/ha) was 15. For the same molecule, the “AMBEL phytotoxicity rating (0-100 scale)” value ([15]; 31.3 g ai/ha) was 80, the “AMBEL phytotoxicity rating (0-100 scale)” value ([15]; 62.5 g ai/ha) was 85 and the “AMBEL phytotoxicity rating (0-100 scale)” value [15, 27] was 85. The “AMBEL phytotoxicity rating (0-100 scale)” value [15, 28] was 90, the “AMARE phytotoxicity rating (0-100 scale)” value ([16]; 31.3 g ai/ha) was 100 and the “AMARE phytotoxicity rating (0-100 scale)” value ([16]; 62.5 g ai/ha) was 100. The “AMARE phytotoxicity rating (0-100 scale)” value [16, 27] was 100, the “AMARE phytotoxicity rating (0-100 scale)” value [16, 28] was 100 and the “DIGSA phytotoxicity rating (0-100 scale)” value ([17]; 125 g ai/ha) was 75. The “DIGSA phytotoxicity rating (0-100 scale)” value ([17]; 250 g ai/ha) was 80, the “SETVI phytotoxicity rating (0-100 scale)” value ([18]; 31.3 g ai/ha) was 100 and the “SETVI phytotoxicity rating (0-100 scale)” value ([18]; 62.5 g ai/ha) was 100. The “SETVI phytotoxicity rating (0-100 scale)” value [18, 27] was 100, the “SETVI phytotoxicity rating (0-100 scale)” value [18, 28] was 100 and the “CHEAL phytotoxicity rating (0-100 scale)” value ([19]; 31.3 g ai/ha) was 100. The “CHEAL phytotoxicity rating (0-100 scale)” value ([19]; 62.5 g ai/ha) was 100, the “CHEAL phytotoxicity rating (0-100 scale)” value [19, 27] was 100 and the “CHEAL phytotoxicity rating (0-100 scale)” value [19, 28] was 100. For the same molecule, the “CASOB phytotoxicity rating (0-100 scale)” value ([20]; 31.3 g ai/ha) was 100, the “CASOB phytotoxicity rating (0-100 scale)” value ([20]; 62.5 g ai/ha) was 100 and the “CASOB phytotoxicity rating (0-100 scale)” value [20, 27] was 100. The “CASOB phytotoxicity rating (0-100 scale)” value [20, 28] was 100, the “IPOHE phytotoxicity rating (0-100 scale)” value ([21]; 125 g ai/ha) was 100 and the “IPOHE phytotoxicity rating (0-100 scale)” value ([21]; 250 g ai/ha) was 100. For the same molecule, the “ECHCG phytotoxicity rating (0-100 scale)” value ([22]; 125 g ai/ha) was 90, the “ECHCG phytotoxicity rating (0-100 scale)” value ([22]; 250 g ai/ha) was 95 and the “SORHA phytotoxicity rating (0-100 scale)” value ([23]; 125 g ai/ha) was 80. The “SORHA phytotoxicity rating (0-100 scale)” value ([23]; 250 g ai/ha) was 95, the “ABUTH phytotoxicity rating (0-100 scale)” value ([24]; 125 g ai/ha) was 100 and the “ABUTH phytotoxicity rating (0-100 scale)” value ([24]; 250 g ai/ha) was 100. For the same molecule, the “RICE crop damage” value ([25]; 125 g ai/ha) was 95, the “RICE crop damage” value ([25]; 250 g ai/ha) was 98 and the “SOY crop damage” value ([26]; 125 g ai/ha) was 99. The “SOY crop damage” value ([26]; 250 g ai/ha) was 99.
